Experiment: Stability of cannabinoid compounds and Vitamin E components in Beverage 2 (AB Red) by LCMSMS
Type: physicochemical

## CCCCCc1cc2c(c(O)c1C(=O)O)[C@@H]1C=C(C)CC[C@H]1C(C)(C)O2 [D9 THCA, delta-9-tetrahydrocannabinolic acid]
Stored at 8° C., 0 days
  Stability of Plant-Derived Cannabinoid Compounds in AB Red: 1.35 µg/mL
Stored at 8° C., 1 days
  Stability of Plant-Derived Cannabinoid Compounds in AB Red: 1.34 µg/mL
Stored at 8° C., 2 days
  Stability of Plant-Derived Cannabinoid Compounds in AB Red: 1.34 µg/mL
Stored at 8° C., 3 days
  Stability of Plant-Derived Cannabinoid Compounds in AB Red: 1.35 µg/mL
Stored at 8° C., 5 days
  Stability of Plant-Derived Cannabinoid Compounds in AB Red: 1.36 µg/mL
Stored at 8° C., 8 days
  Stability of Plant-Derived Cannabinoid Compounds in AB Red: 1.35 µg/mL
Stored at 8° C., 9 days
  Stability of Plant-Derived Cannabinoid Compounds in AB Red: 1.36 µg/mL
Stored at 8° C., 10 days
  Stability of Plant-Derived Cannabinoid Compounds in AB Red: 1.35 µg/mL
Stored at 8° C., 11 days
  Stability of Plant-Derived Cannabinoid Compounds in AB Red: 1.35 µg/mL
Stored at 8° C., 12 days
  Stability of Plant-Derived Cannabinoid Compounds in AB Red: 1.32 µg/mL
Stored at 8° C., 15 days
  Stability of Plant-Derived Cannabinoid Compounds in AB Red: 1.33 µg/mL
Stored at 8° C., 16 days
  Stability of Plant-Derived Cannabinoid Compounds in AB Red: 1.31 µg/mL
Stored at 8° C., 17 days
  Stability of Plant-Derived Cannabinoid Compounds in AB Red: 1.34 µg/mL
Stored at 8° C., 18 days
  Stability of Plant-Derived Cannabinoid Compounds in AB Red: 1.35 µg/mL
Stored at 8° C., 19 days
  Stability of Plant-Derived Cannabinoid Compounds in AB Red: 1.32 µg/mL
Stored at 8° C., 22 days
  Stability of Plant-Derived Cannabinoid Compounds in AB Red: 1.34 µg/mL
Stored at 8° C., 23 days
  Stability of Plant-Derived Cannabinoid Compounds in AB Red: 1.33 µg/mL
Stored at 8° C., 24 days
  Stability of Plant-Derived Cannabinoid Compounds in AB Red: 1.33 µg/mL
Stored at 8° C., 25 days
  Stability of Plant-Derived Cannabinoid Compounds in AB Red: 1.34 µg/mL
Stored at 8° C., 26 days
  Stability of Plant-Derived Cannabinoid Compounds in AB Red: 1.33 µg/mL
Stored at 8° C., 29 days
  Stability of Plant-Derived Cannabinoid Compounds in AB Red: 1.35 µg/mL
Stored at 8° C., 30 days
  Stability of Plant-Derived Cannabinoid Compounds in AB Red: 1.31 µg/mL
Stored at 8° C., 60 days
  Stability of Plant-Derived Cannabinoid Compounds in AB Red: 1.32 µg/mL
Stored at 8° C., 90 days
  Stability of Plant-Derived Cannabinoid Compounds in AB Red: 1.34 µg/mL
Stored at 8° C., 120 days
  Stability of Plant-Derived Cannabinoid Compounds in AB Red: 1.30 µg/mL
Stored at 8° C., 150 days
  Stability of Plant-Derived Cannabinoid Compounds in AB Red: 1.34 µg/mL
Stored at 8° C., 180 days
  Stability of Plant-Derived Cannabinoid Compounds in AB Red: 1.30 µg/mL
Stored at 8° C., 210 days
  Stability of Plant-Derived Cannabinoid Compounds in AB Red: 1.33 µg/mL
Stored at 8° C., 240 days
  Stability of Plant-Derived Cannabinoid Compounds in AB Red: 1.32 µg/mL
Stored at 8° C., 270 days
  Stability of Plant-Derived Cannabinoid Compounds in AB Red: 1.33 µg/mL
Stored at 8° C., 300 days
  Stability of Plant-Derived Cannabinoid Compounds in AB Red: 1.30 µg/mL
Stored at 8° C., 330 days
  Stability of Plant-Derived Cannabinoid Compounds in AB Red: 1.34 µg/mL
Stored at 8° C., 360 days
  Stability of Plant-Derived Cannabinoid Compounds in AB Red: 1.31 µg/mL
Stored at 8° C., 390 days
  Stability of Plant-Derived Cannabinoid Compounds in AB Red: 1.29 µg/mL
Stored at 8° C., 420 days
  Stability of Plant-Derived Cannabinoid Compounds in AB Red: 1.29 µg/mL
Stored at 8° C., 450 days
  Stability of Plant-Derived Cannabinoid Compounds in AB Red: 1.31 µg/mL
Stored at 8° C., 480 days
  Stability of Plant-Derived Cannabinoid Compounds in AB Red: 1.28 µg/mL
Stored at 8° C., 510 days
  Stability of Plant-Derived Cannabinoid Compounds in AB Red: 1.25 µg/mL
Stored at 8° C., 540 days
  Stability of Plant-Derived Cannabinoid Compounds in AB Red: 1.26 µg/mL
Stored at 8° C., 570 days
  Stability of Plant-Derived Cannabinoid Compounds in AB Red: 1.24 µg/mL
Stored at 21-25° C., 0 days
  Stability of Plant-Derived Cannabinoid Compounds in AB Red: 1.35 µg/mL
Stored at 21-25° C., 1 days
  Stability of Plant-Derived Cannabinoid Compounds in AB Red: 1.34 µg/mL
Stored at 21-25° C., 2 days
  Stability of Plant-Derived Cannabinoid Compounds in AB Red: 1.30 µg/mL
Stored at 21-25° C., 3 days
  Stability of Plant-Derived Cannabinoid Compounds in AB Red: 1.32 µg/mL
Stored at 21-25° C., 5 days
  Stability of Plant-Derived Cannabinoid Compounds in AB Red: 1.36 µg/mL
Stored at 21-25° C., 8 days
  Stability of Plant-Derived Cannabinoid Compounds in AB Red: 1.36 µg/mL
Stored at 21-25° C., 9 days
  Stability of Plant-Derived Cannabinoid Compounds in AB Red: 1.35 µg/mL
Stored at 21-25° C., 10 days
  Stability of Plant-Derived Cannabinoid Compounds in AB Red: 1.33 µg/mL
Stored at 21-25° C., 11 days
  Stability of Plant-Derived Cannabinoid Compounds in AB Red: 1.33 µg/mL
Stored at 21-25° C., 12 days
  Stability of Plant-Derived Cannabinoid Compounds in AB Red: 1.33 µg/mL
Stored at 21-25° C., 15 days
  Stability of Plant-Derived Cannabinoid Compounds in AB Red: 1.30 µg/mL
Stored at 21-25° C., 16 days
  Stability of Plant-Derived Cannabinoid Compounds in AB Red: 1.36 µg/mL
Stored at 21-25° C., 17 days
  Stability of Plant-Derived Cannabinoid Compounds in AB Red: 1.35 µg/mL
Stored at 21-25° C., 18 days
  Stability of Plant-Derived Cannabinoid Compounds in AB Red: 1.36 µg/mL
Stored at 21-25° C., 19 days
  Stability of Plant-Derived Cannabinoid Compounds in AB Red: 1.31 µg/mL
Stored at 21-25° C., 22 days
  Stability of Plant-Derived Cannabinoid Compounds in AB Red: 1.34 µg/mL
Stored at 21-25° C., 23 days
  Stability of Plant-Derived Cannabinoid Compounds in AB Red: 1.36 µg/mL
Stored at 21-25° C., 24 days
  Stability of Plant-Derived Cannabinoid Compounds in AB Red: 1.30 µg/mL
Stored at 21-25° C., 25 days
  Stability of Plant-Derived Cannabinoid Compounds in AB Red: 1.35 µg/mL
Stored at 21-25° C., 26 days
  Stability of Plant-Derived Cannabinoid Compounds in AB Red: 1.32 µg/mL
Stored at 21-25° C., 29 days
  Stability of Plant-Derived Cannabinoid Compounds in AB Red: 1.33 µg/mL
Stored at 21-25° C., 30 days
  Stability of Plant-Derived Cannabinoid Compounds in AB Red: 1.34 µg/mL
Stored at 21-25° C., 60 days
  Stability of Plant-Derived Cannabinoid Compounds in AB Red: 1.28 µg/mL
Stored at 21-25° C., 90 days
  Stability of Plant-Derived Cannabinoid Compounds in AB Red: 1.34 µg/mL
Stored at 21-25° C., 120 days
  Stability of Plant-Derived Cannabinoid Compounds in AB Red: 1.34 µg/mL
Stored at 21-25° C., 150 days
  Stability of Plant-Derived Cannabinoid Compounds in AB Red: 1.28 µg/mL
Stored at 21-25° C., 180 days
  Stability of Plant-Derived Cannabinoid Compounds in AB Red: 1.30 µg/mL
Stored at 21-25° C., 210 days
  Stability of Plant-Derived Cannabinoid Compounds in AB Red: 1.33 µg/mL
Stored at 21-25° C., 240 days
  Stability of Plant-Derived Cannabinoid Compounds in AB Red: 1.31 µg/mL
Stored at 21-25° C., 270 days
  Stability of Plant-Derived Cannabinoid Compounds in AB Red: 1.27 µg/mL
Stored at 21-25° C., 300 days
  Stability of Plant-Derived Cannabinoid Compounds in AB Red: 1.27 µg/mL
Stored at 21-25° C., 330 days
  Stability of Plant-Derived Cannabinoid Compounds in AB Red: 1.28 µg/mL
Stored at 21-25° C., 360 days
  Stability of Plant-Derived Cannabinoid Compounds in AB Red: 1.29 µg/mL
Stored at 21-25° C., 390 days
  Stability of Plant-Derived Cannabinoid Compounds in AB Red: 1.26 µg/mL
Stored at 21-25° C., 420 days
  Stability of Plant-Derived Cannabinoid Compounds in AB Red: 1.26 µg/mL
Stored at 21-25° C., 450 days
  Stability of Plant-Derived Cannabinoid Compounds in AB Red: 1.31 µg/mL
Stored at 21-25° C., 480 days
  Stability of Plant-Derived Cannabinoid Compounds in AB Red: 1.29 µg/mL
Stored at 21-25° C., 510 days
  Stability of Plant-Derived Cannabinoid Compounds in AB Red: 1.27 µg/mL
Stored at 21-25° C., 540 days
  Stability of Plant-Derived Cannabinoid Compounds in AB Red: 1.29 µg/mL
Stored at 21-25° C., 570 days
  Stability of Plant-Derived Cannabinoid Compounds in AB Red: 1.24 µg/mL
